Reference: ChEMBL document CHEMBL1201862, “PubChem BioAssay data set” (2004)
Active and inactive are the calls of the source.

Columns and labels:
[1] = molecular target: T1, Replicative DNA helicase DnaB (Mycobacterium tuberculosis, UniProt P9WMR3); test: DnaB intein splicing inhibitors, dose response, biochemical, cell-free fluorescence (AID 449749); assay type: functional
T1 sequence (P9WMR3 whole entry): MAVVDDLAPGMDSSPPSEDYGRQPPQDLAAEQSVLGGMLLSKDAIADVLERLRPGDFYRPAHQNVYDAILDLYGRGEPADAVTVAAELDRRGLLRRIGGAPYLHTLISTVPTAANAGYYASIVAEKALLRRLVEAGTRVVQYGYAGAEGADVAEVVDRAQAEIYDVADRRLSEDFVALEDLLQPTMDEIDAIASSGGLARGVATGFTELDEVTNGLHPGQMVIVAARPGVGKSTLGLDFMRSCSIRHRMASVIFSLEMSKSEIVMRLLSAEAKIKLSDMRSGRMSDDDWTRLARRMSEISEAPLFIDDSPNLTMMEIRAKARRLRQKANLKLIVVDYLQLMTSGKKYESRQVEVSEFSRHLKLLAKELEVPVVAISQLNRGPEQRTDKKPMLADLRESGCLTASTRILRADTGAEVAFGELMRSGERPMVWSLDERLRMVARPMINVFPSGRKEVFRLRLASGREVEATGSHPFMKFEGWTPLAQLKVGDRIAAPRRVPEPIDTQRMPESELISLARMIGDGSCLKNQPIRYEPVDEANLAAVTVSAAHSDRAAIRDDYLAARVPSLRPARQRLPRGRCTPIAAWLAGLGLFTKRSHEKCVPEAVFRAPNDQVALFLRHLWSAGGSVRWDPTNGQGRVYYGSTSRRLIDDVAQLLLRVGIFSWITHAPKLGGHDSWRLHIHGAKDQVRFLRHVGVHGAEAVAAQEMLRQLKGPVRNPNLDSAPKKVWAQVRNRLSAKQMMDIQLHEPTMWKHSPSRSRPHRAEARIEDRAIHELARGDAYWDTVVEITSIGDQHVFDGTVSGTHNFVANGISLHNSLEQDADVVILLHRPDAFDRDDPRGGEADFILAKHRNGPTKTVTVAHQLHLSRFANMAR

Protein RecA = molecular target: T2, Protein RecA (Mycobacterium tuberculosis, UniProt P9WHJ3); test: Fluorescence Cell-Free Homogeneous Dose Retest to Identify Inhibitors of RecA-Intein Splicing Activity. [Related pubchem assays (depositor defined):AID2097, AID2223, AID489010, AID492950]; assay type: functional
T2 sequence (P9WHJ3 whole entry): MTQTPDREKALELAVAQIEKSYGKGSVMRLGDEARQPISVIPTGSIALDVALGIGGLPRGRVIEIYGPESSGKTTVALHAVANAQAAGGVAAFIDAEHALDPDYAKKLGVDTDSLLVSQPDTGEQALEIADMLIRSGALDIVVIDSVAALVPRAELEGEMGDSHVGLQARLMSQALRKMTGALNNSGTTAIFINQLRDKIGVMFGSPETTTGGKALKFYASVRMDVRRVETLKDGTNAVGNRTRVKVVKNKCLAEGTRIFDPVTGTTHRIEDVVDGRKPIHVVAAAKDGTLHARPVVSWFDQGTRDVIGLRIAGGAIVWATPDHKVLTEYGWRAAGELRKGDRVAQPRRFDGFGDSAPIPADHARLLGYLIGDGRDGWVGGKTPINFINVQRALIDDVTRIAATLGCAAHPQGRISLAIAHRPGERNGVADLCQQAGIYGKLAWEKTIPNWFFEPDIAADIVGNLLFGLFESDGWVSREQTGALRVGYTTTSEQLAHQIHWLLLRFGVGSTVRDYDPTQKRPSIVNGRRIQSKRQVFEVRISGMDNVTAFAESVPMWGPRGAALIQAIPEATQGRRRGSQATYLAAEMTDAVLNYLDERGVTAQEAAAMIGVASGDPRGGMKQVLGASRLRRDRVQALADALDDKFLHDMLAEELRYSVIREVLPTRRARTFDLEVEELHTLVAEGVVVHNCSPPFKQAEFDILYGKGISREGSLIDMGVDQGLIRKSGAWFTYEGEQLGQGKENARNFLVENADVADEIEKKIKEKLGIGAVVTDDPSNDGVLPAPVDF

[2] = molecular target: T3, Sentrin-specific protease 8 (Homo sapiens, UniProt Q96LD8); assay type: functional
T3 sequence (Q96LD8 whole entry): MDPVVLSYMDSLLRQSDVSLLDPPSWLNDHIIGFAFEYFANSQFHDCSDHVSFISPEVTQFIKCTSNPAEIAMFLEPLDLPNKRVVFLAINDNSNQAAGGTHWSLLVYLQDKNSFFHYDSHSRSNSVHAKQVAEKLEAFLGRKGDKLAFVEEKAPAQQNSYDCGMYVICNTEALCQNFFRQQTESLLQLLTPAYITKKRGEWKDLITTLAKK

[3] = molecular target: T3, Sentrin-specific protease 8; assay type: functional; remark: listed apart in the source
Beta-galactosidase = Beta-galactosidase (Escherichia coli, UniProt Q8VNN2); test: PubChem AID 485352; assay type: functional
Chain of Beta-galactosidase (Q8VNN2 whole entry): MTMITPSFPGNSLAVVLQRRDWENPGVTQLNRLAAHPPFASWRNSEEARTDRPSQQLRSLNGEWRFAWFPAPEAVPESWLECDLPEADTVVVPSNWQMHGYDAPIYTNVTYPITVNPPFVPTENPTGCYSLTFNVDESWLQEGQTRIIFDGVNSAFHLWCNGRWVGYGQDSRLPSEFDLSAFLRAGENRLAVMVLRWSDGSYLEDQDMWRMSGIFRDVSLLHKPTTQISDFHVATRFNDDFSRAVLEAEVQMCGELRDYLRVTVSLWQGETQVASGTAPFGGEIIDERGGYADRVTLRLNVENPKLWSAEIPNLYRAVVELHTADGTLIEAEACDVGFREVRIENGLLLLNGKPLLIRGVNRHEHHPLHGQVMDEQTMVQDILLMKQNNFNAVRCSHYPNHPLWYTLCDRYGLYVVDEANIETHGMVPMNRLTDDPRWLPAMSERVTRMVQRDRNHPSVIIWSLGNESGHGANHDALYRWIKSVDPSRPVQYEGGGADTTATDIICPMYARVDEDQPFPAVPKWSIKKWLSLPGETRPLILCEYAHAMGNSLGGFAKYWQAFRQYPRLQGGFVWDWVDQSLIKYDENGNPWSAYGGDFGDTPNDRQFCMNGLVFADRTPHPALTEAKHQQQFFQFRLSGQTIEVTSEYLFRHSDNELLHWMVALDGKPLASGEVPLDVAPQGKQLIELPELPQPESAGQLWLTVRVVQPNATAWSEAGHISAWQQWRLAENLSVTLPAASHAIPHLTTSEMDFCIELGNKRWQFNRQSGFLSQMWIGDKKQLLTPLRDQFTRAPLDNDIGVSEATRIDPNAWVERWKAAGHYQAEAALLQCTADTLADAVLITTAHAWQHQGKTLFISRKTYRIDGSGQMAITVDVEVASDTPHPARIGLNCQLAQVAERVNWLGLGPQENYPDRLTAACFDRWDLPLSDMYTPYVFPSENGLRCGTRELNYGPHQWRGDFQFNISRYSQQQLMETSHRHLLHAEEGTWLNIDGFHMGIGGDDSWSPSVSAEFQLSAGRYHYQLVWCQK

[4] = molecular target: T4, Type-1 angiotensin II receptor (Homo sapiens, UniProt P30556); test: antagonism of angiotensin II type 1 receptor – cell-based, uHTS hits, selectivity assay for APJ receptor antagonist project, dose response (AID 463214); assay type: functional;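 note: antagonist potency against angiotensin II stimulated AT1 response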
T4 sequence (P30556 whole entry): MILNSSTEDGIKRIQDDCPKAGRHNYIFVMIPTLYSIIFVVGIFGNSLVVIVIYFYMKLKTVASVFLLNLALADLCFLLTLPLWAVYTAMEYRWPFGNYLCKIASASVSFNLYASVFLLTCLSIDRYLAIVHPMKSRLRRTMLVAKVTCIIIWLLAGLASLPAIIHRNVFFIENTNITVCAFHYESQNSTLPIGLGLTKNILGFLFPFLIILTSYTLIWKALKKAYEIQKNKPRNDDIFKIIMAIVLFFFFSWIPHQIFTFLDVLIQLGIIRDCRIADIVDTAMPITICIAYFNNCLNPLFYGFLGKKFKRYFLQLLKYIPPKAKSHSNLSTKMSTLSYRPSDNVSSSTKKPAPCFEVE

Cytochrome P450 2D6 = Cytochrome P450 2D6 (Homo sapiens, UniProt P10635);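 note: CYP2D6 member of a cytochrome P450 panel assay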
Chain of Cytochrome P450 2D6 (P10635 whole entry): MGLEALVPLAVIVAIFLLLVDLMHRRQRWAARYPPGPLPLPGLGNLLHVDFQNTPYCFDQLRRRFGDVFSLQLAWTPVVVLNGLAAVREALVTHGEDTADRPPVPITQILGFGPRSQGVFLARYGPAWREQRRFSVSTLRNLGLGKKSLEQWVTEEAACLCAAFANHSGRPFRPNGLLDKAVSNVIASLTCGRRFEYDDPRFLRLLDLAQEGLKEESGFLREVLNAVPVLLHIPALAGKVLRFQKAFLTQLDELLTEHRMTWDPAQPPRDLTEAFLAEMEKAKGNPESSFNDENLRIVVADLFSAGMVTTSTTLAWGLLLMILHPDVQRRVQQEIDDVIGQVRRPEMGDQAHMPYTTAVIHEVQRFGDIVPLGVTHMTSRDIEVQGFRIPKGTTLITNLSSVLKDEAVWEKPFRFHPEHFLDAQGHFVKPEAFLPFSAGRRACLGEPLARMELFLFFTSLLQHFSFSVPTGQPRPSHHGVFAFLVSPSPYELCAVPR

Cytochrome P450 2C9 = Cytochrome P450 2C9 (Homo sapiens, UniProt P11712)
Chain of Cytochrome P450 2C9 (P11712 whole entry, the tested form may be a part): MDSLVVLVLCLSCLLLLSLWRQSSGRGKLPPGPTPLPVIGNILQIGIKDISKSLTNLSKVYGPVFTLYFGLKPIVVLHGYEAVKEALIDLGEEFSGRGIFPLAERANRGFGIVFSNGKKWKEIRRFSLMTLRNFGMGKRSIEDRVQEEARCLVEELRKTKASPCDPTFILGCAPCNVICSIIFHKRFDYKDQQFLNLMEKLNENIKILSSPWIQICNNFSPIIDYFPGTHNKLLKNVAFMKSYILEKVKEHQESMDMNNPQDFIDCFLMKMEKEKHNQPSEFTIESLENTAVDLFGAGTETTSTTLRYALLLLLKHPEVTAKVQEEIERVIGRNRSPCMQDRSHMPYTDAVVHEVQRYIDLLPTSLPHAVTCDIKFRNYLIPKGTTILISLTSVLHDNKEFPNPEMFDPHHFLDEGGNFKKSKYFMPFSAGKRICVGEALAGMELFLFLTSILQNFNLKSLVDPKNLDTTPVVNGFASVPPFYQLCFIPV

[5] = molecular target: Disintegrin and metalloproteinase domain-containing protein 17 (Homo sapiens, UniProt P78536); test: exosite inhibitors of ADAM17, dose response, biochemical (AID 743260)
Chain of Disintegrin and metalloproteinase domain-containing protein 17 (P78536 whole entry, the tested form may be a part): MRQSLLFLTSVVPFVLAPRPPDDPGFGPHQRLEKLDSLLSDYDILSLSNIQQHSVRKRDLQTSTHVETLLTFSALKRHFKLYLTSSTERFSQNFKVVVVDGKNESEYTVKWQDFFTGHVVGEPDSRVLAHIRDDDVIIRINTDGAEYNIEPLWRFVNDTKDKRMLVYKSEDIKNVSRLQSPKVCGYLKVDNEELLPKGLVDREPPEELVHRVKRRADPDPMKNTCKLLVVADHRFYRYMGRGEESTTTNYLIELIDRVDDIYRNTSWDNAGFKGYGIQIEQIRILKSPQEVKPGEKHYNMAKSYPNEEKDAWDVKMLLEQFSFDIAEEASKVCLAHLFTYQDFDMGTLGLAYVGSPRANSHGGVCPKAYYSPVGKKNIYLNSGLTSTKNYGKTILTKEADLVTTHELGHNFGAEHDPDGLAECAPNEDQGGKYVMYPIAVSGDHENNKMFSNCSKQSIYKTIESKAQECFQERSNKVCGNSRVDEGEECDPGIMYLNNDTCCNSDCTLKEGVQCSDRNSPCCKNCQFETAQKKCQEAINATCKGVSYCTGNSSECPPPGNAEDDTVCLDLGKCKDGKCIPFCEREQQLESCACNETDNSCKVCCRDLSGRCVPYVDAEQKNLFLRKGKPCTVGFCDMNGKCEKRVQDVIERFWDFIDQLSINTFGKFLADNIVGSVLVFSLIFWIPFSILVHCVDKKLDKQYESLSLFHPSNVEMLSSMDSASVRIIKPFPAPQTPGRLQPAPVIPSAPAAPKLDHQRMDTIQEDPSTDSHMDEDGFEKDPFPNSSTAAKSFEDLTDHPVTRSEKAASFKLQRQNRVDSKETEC

[6] = inhibition of ADAM10 peptide cleavage – biochemical, FRET peptide substrate, recombinant human ADAM10, selectivity assay for ADAM17 exosite inhibitor project, dose response (AID 743259);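 note: ADAM10 enzyme cleaving a FRET peptide substrate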
[7] = Trypanosoma cruzi growth suppression in host cells – NIH3T3 host cells, beta-gal luminescence, confirmation (AID 2044); assay type: functional, cell-based;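 note: intracellular parasites grown in NIH/3T3 mouse fibroblasts as host cells; luminescent beta-galactosidase reporter signal from transgenic T. cruzi replicating inside host cells; inhibitors lower the luminescence signal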
[8] = microbe, parasite or virus in culture; assay type: functional; settings: Mycobacterium tuberculosis
[9] = NIH3T3 cell viability loss – ATP luminescence, mouse fibroblasts, counter-screen, dose response (AID 2010); assay type: functional, cell-based;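 note: cells exposed to compound for about 90 hours before reading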
[10] = molecular target: T5, Apoptotic protease-activating factor 1 (Homo sapiens, UniProt O14727); assay type: functional
T5 sequence (O14727 whole entry): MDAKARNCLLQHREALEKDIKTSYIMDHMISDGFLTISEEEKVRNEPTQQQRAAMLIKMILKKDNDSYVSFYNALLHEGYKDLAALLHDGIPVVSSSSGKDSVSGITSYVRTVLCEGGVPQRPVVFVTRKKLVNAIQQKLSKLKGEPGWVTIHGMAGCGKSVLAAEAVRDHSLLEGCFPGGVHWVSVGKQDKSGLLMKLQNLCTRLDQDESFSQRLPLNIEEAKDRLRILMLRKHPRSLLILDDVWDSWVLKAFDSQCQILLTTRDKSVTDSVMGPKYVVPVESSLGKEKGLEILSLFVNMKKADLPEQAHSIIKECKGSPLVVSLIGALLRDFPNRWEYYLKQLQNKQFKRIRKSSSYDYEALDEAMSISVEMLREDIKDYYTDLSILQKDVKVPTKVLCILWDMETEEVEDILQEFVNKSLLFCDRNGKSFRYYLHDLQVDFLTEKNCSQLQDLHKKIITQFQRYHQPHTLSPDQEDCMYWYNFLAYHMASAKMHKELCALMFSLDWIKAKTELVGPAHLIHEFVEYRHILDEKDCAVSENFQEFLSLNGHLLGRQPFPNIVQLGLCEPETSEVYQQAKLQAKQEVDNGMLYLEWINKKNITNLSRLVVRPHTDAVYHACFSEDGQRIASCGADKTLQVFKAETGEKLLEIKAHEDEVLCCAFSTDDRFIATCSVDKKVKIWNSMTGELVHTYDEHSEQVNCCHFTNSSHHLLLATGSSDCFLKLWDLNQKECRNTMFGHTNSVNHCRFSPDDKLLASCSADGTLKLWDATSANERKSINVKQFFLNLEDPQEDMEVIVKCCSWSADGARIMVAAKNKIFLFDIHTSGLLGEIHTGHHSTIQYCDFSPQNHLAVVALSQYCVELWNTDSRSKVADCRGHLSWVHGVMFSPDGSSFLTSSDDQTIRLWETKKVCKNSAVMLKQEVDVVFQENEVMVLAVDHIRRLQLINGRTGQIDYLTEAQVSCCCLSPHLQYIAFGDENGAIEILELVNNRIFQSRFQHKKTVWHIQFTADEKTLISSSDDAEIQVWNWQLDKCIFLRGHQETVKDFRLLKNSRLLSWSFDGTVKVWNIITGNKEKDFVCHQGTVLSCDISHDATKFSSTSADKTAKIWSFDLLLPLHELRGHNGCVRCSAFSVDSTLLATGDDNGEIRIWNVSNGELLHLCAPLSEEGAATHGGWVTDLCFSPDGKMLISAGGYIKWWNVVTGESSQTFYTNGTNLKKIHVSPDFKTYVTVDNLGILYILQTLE

Paired box protein Pax-8 = Paired box protein Pax-8 (Homo sapiens, UniProt Q06710); test: PAX8 transcriptional activity inhibition in RMG-I – RMG-I cells, luciferase, cherry-pick, dose response (AID 687027); assay type: functional, cell-based;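 note: luciferase reporter driven by Pax8 target thyroperoxidase promoter measured by SteadyGlo luminescence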
Chain of Paired box protein Pax-8 (Q06710 whole entry): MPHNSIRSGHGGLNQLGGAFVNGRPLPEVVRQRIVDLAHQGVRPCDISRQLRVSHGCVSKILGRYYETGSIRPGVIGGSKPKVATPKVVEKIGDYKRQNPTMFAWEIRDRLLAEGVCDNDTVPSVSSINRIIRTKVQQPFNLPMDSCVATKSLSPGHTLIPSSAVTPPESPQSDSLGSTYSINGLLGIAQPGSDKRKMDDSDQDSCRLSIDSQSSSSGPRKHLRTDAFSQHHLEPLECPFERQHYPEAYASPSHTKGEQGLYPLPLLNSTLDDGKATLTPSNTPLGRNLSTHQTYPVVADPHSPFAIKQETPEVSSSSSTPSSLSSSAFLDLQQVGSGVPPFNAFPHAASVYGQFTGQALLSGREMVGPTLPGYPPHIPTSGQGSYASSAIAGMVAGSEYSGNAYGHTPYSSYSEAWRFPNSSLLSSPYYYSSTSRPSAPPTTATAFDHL

[11] = general cell-killing toxicity readout – plate reader, dry powder samples, cytotoxicity control for PAX8 inhibitor project, dose response (AID 743021); assay type: functional, cell-based
[12] = blockers of HIV-1 envelope-mediated cell-cell fusion – cherry-pick, dose response (AID 652057); assay type: functional, cell-based
[13] = blockers of HIV-1 ZM109 envelope-driven cell-cell fusion – HeLa effector, CEM target cells, luciferase, cherry-pick, dose response (AID 652058); assay type: functional, cell-based;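 note: luciferase signal from HIV-1 Env mediated cell-cell fusion of effector and target cells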
[14] = HIV-1 AD8 envelope cell-cell fusion blockers – cherry-pick, dose response (AID 652062); assay type: functional, cell-based;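 note: luciferase signal from cell-cell fusion driven by HIV-1 clade B AD8 Env; potency is for inhibitors of fusion seen as a drop in luminescence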
[15] = IGROV1 cell killing – plate reader, dry powder samples, PAX8 inhibitor project, dose response (AID 743043); assay type: functional, cell-based; settings: IGROV-1
[16] = OVCAR8 cell viability loss – plate reader, dry powder samples, PAX8 project, dose response (AID 743197); assay type: functional, cell-based; settings: OVCAR-8
[17] = molecular target: T6, COUP transcription factor 2 (Homo sapiens, UniProt P24468); test: Luminescence-based cell-based high throughput dose response assay to identify inhibitors of COUP-TFII (NR2F2).; assay type: functional;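 note: HEK293 cells transiently cotransfected with COUP-TFII expression vector and reporter; luciferase reporter luminescence driven by COUP-TFII from the pX2-168 reporter plasmid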
T6 sequence (P24468 whole entry): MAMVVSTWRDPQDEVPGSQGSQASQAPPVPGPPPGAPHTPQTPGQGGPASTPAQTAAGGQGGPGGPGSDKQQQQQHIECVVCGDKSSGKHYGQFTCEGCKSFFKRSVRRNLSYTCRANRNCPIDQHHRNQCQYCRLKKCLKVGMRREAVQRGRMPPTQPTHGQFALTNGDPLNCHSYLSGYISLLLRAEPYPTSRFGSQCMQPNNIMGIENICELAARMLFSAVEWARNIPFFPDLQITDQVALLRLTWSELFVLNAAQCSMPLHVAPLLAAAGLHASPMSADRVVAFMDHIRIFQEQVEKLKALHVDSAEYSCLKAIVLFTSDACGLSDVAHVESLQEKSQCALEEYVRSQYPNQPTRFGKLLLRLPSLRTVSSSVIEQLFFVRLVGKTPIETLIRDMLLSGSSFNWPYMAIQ

CCOc1ccc(C(c2c(C)n[nH]c2O)c2c(C)n[nH]c2O)cc1OC
AC50 [1]: 0.386 µM (active)
EC50 (Protein RecA): 0.309 µM (active)
IC50 [2]: 32.9 µM (active)
IC50 [3]: 43.6 µM (active)

O=C(CCCC(=O)OCC(=O)c1ccc(Cl)cc1Cl)Nc1cc(C(F)(F)F)ccc1Cl
EC50 (Beta-galactosidase): > 40 µM (inactive)
IC50 [4]: > 40 µM (not active)
AC50 (Cytochrome P450 2D6): 12.6 µM (inconclusive)
AC50 (Cytochrome P450 2C9): inconclusive

O=C(COC(=O)/C=C/c1ccc(OC(F)F)cc1)Nc1ccc(S(=O)(=O)N2CCCC2)cc1
IC50 [5]: > 69.5 µM (inactive)
IC50 [6]: > 69.5 µM (inactive)

CC(C)(C)c1ccc(C(=O)NNc2cc(N3CCCCC3)nc(N3CCCCC3)n2)cc1
EC50 [7]: 1.7 µM (active)
CC50 [8]: > 40 µM (active)
EC50 [9]: > 60 µM (not active)
IC50 [10]: 3.59 µM (active)
IC50 [2]: 0.796 µM (active)
IC50 [3]: 0.384 µM (active)

Cc1cnc(C(=O)OC(C)C(=O)Nc2ccc3c(c2)OCCO3)cn1 (configuration not stated)
IC50 [5]: > 69.5 µM (inactive)
IC50 [6]: > 69.5 µM (inactive)

COc1ccc(NC(=O)Nc2ccc3c(c2)C(=O)N([C@@H](C)CO)C[C@@H](C)[C@H](CN(C)Cc2ccc(C(F)(F)F)cc2)O3)cc1
AC50 (Paired box protein Pax-8): 22 µM (active)
AC50 [11]: 41.7 µM (active)

COc1cccc(S(=O)(=O)N(C)C[C@@H]2Oc3cc(C#CCC(C)C)ccc3S(=O)(=O)N([C@H](C)CO)C[C@H]2C)c1
AC50 [12]: 36.2 µM (active)
AC50 [13]: 36.9 µM (active)
AC50 [14]: 8.75 µM (active)

O=C(CCN1CCCCC1)N[C@H]1CC[C@H](CCn2cc(-c3ccccc3)nn2)O[C@@H]1CO
AC50 [13]: 40.8 µM (active)

C[C@@H]1CCCCO[C@@H](CN(C)Cc2ccc(C(F)(F)F)cc2)[C@H](C)CN([C@H](C)CO)C(=O)c2cc(NS(=O)(=O)c3ccccc3)ccc2O1
AC50 (Paired box protein Pax-8): 6.14 µM (active)
AC50 [15]: 41.9 µM (active)
AC50 [16]: 34 µM (active)

COc1cccc(CC(=O)N(Cc2ccccc2)c2ccccc2C(=O)Nc2cc(OC)ccc2OC)c1
IC50 [5]: > 69.5 µM (inactive)
IC50 [6]: > 69.5 µM (inactive)

O=C(CSc1cc(Cl)ccc1Cl)N/N=C/c1ccc[nH]1
IC50 [17]: 15 µM (inactive)

COC(=O)[C@H](CC(C)C)N1Cc2nnn(Cc3ccc(C)cc3)c2-c2cc(F)ccc2S1(=O)=O
IC50 [5]: > 69.5 µM (inactive)
IC50 [6]: > 69.5 µM (inactive)
